In patent US20170252442A1, “PHOTOHEXER COMPOUNDS AND PHARMACEUTICAL COMPOSITION AND USE THEREOF” (RAINBOW PHARMATECH LLC, priority 2014, published 2017):

Tests used:
CT26 cells = assay: MTT assay, photodynamic therapy on CT26 cells; type: cell-based, murine
From the text: (§1) The cells in logarithmic growth phase were collected and inoculated on 24-well culture plates. When reaching 70%-80% confluence, cells were divided randomly into the following groups: control (the parallel control group without photosensitizer and irradiation), irradiation (irradiation treatment alone without photosensitizer); (photosensitizer treatment alone without irradiation), photodynamic treatment (treatment by photosensitizer in combination with irradiation). For the photosensitizer alone treatment group and photodynamic treatment group, an appropriate amount of Photohexer-1 (P-1) or Photohexer-2 (P-2) was respectively added away from light to give a final concentration of 0.8, 1.6, 3.2, 6.4 μM. Each group set 3 replicates. Cells were incubated with the active agent, different treatments were carried out according to the grouping. […] After treatment and digestion of each group of cells, it was inoculated into a 96-well plate at 100 μL/well, and four wells were set for each treatment. MTT assay was performed after 24 h from inoculation: 20 μL MTT solution was added to each well under the condition away from light, and the culture was continued for 4 hours. 150 μL DMSO was added to each well after discarding the supernatant. After 15 min of dissolution, the absorbance value (OD value) was measured using a microplate reader and the relative survival rate of cells was calculated according to the following formula: […]

MCF-7/ADR cells = assay: MTT assay, photodynamic therapy on MCF-7/ADR cells; type: cell-based, human
From the text: as §1

[1] = Storage stability determination; type: physicochemical; conditions: 3 months of storage in dark at 2-4
Description: The storage stability of Photohexer-1 and Photohexer-2 was determined by conventional methods in the art.

4T1 transplanted tumors = assay: Tumor-inhibition effect of P1 and P2-PDT on 4T1 xenografted mice; type: in vivo, Balb/c mice
Description: Experimental groups: blank control (2 mice), P-1 alone treatment (4 mg/kg, 8 mice), P-2 alone treatment (2 mg/kg, 8 mice), P-1 treatment (2 mg/kg, 4 mg/kg, 8 mice/group) combined with light irradiations, P-2 treatment (1 mg/kg, 2 mg/kg, 4 mg/kg, 8 mice/group) combined with light irradiations, 66 Balb/c mice in total.

SW-620 cells = assay: MTT assay, photodynamic therapy on SW-620 cells; type: cell-based, human
From the text: as §1

[2] = 0.8 μM alone treatment, without irradiation
[3] = 0.8 μM combined with 2.6 J/cm^2 light irradiation
[4] = 0.8 μM combined with 5.2 J/cm^2 light irradiation
[5] = 0.8 μM combined with 10.4 J/cm^2 light irradiation
[6] = 1.6 μM alone treatment, without irradiation
[7] = 1.6 μM combined with 2.6 J/cm^2 light irradiation
[8] = 1.6 μM combined with 5.2 J/cm^2 light irradiation
[9] = 1.6 μM combined with 10.4 J/cm^2 light irradiation
[10] = 3.2 μM alone treatment, without irradiation
[11] = 3.2 μM combined with 2.6 J/cm^2 light irradiation
[12] = 3.2 μM combined with 5.2 J/cm^2 light irradiation
[13] = 3.2 μM combined with 10.4 J/cm^2 light irradiation
[14] = 6.4 μM alone treatment, without irradiation
[15] = 6.4 μM combined with 2.6 J/cm^2 light irradiation
[16] = 6.4 μM combined with 5.2 J/cm^2 light irradiation
[17] = 6.4 μM combined with 10.4 J/cm^2 light irradiation

C=CC1=C(C)c2cc3[nH]c(cc4nc(cc5[nH]c(cc1n2)c(C)c5CCC(=O)[O-])C(CCC(=O)[O-])=C4C)c(C)c3C(C)OCCCCCC.[Na+].[Na+] (stereo not shown) [Photohexer P-1, 2-(1-hexyloxyethyl)-6,7-bis(propionatesodium)-1,3,5,8-tetramethyl-4-vinylporphyrin]
toxic side effects compared between P-1 and P-2 (CT26 cells): higher than those of P-2 | Cell survival rate (CT26 cells; [2]): 93.23 ± 3.43% | Cell survival rate (CT26 cells; [3]): 91.63 ± 3.46% | Cell survival rate (CT26 cells; [4]): 82.12 ± 4.98% | Cell survival rate (CT26 cells; [5]): 82.39 ± 4.63% | Cell survival rate (CT26 cells; [6]): 87.15 ± 2.45% | Cell survival rate (CT26 cells; [7]): 62.86 ± 2.29% | Cell survival rate (CT26 cells; [8]): 55.88 ± 2.95% | Cell survival rate (CT26 cells; [9]): 44.00 ± 3.29% | Cell survival rate (CT26 cells; [10]): 56.13 ± 1.69% | Cell survival rate (CT26 cells; [11]): 49.48 ± 2.06% | Cell survival rate (CT26 cells; [12]): 44.86 ± 1.57% | Cell survival rate (CT26 cells; [13]): 41.00 ± 2.66% | Cell survival rate (CT26 cells; [14]): 44.05 ± 1.26% | Cell survival rate (CT26 cells; [15]): 36.03 ± 1.17% | Cell survival rate (CT26 cells; [16]): 30.01 ± 1.07% | Cell survival rate (CT26 cells; [17]): 28.55 ± 1.47% | cell toxicity (MCF-7/ADR cells): significant cell toxicity | Cell survival rate (MCF-7/ADR cells; [2]): 100.36 ± 3.70% | Cell survival rate (MCF-7/ADR cells; [3]): 55.89 ± 3.97% | Cell survival rate (MCF-7/ADR cells; [4]): 41.47 ± 4.88% | Cell survival rate (MCF-7/ADR cells; [5]): 37.45 ± 4.34% | Cell survival rate (MCF-7/ADR cells; [6]): 93.95 ± 2.47% | Cell survival rate (MCF-7/ADR cells; [7]): 53.43 ± 2.96% | Cell survival rate (MCF-7/ADR cells; [8]): 38.42 ± 2.51% | Cell survival rate (MCF-7/ADR cells; [9]): 32.58 ± 3.54% | Cell survival rate (MCF-7/ADR cells; [10]): 81.01 ± 1.58% | Cell survival rate (MCF-7/ADR cells; [11]): 50.99 ± 2.31% | Cell survival rate (MCF-7/ADR cells; [12]): 36.95 ± 1.89% | Cell survival rate (MCF-7/ADR cells; [13]): 31.79 ± 2.65% | Cell survival rate (MCF-7/ADR cells; [14]): 46.84 ± 1.02% | Cell survival rate (MCF-7/ADR cells; [15]): 45.48 ± 1.04% | Cell survival rate (MCF-7/ADR cells; [16]): 33.47 ± 1.41% | Cell survival rate (MCF-7/ADR cells; [17]): 27.27 ± 1.07% | storage stability (content change by HPLC test) [1]: no content change | toxic effects of photosensitizer alone (4T1 transplanted tumors; 4 mg/kg alone, without irradiation, 4T1 tumor-bearing mice): did not show significant toxic effects | tumor inhibition rate (4T1 transplanted tumors; 4 mg/kg combined with light irradiation (50 J/cm^2), day 22 after treatment, 4T1 tumor-bearing mice): 25.6% | photosensitizer activity on growth of 4T1 transplanted tumors (4T1 transplanted tumors; combined with 50 J/cm^2 irradiation): obvious dose-dependent activity | Cell survival rate (SW-620 cells; [2]): 101.33 ± 3.20% | Cell survival rate (SW-620 cells; [3]): 100.74 ± 3.46% | Cell survival rate (SW-620 cells; [4]): 99.53 ± 3.71% | Cell survival rate (SW-620 cells; [5]): 94.65 ± 4.04% | Cell survival rate (SW-620 cells; [6]): 100.99 ± 2.47% | Cell survival rate (SW-620 cells; [7]): 96.64 ± 2.79% | Cell survival rate (SW-620 cells; [8]): 91.84 ± 2.97% | Cell survival rate (SW-620 cells; [9]): 87.51 ± 3.16% | Cell survival rate (SW-620 cells; [10]): 98.23 ± 1.59% | Cell survival rate (SW-620 cells; [11]): 91.39 ± 2.18% | Cell survival rate (SW-620 cells; [12]): 87.50 ± 1.69% | Cell survival rate (SW-620 cells; [13]): 82.58 ± 2.31% | Cell survival rate (SW-620 cells; [14]): 94.83 ± 1.09% | Cell survival rate (SW-620 cells; [15]): 86.70 ± 1.07%
